Source: publication PMC9144537, “Pharmacokinetics, Prostate Distribution and Metabolic Characteristics of Four Representative Flavones after Oral Administration of the Aerial Part of Glycyrrhiza uralensis in Rats” (Molecules, 2022)
Entries after “also recorded” stand apart in the source; their conditions may differ.

How the values were obtained:
[1] = Qualitative detection of prototype flavones and metabolites in rat plasma, prostate, urine and feces by UPLC-Q-Exactive Orbitrap-MS after oral aerial part of G. uralensis; settings: rats, single oral 1 g/kg extract; for Distribution of protoflavones: Plasma: mixed plasma 0.25-48 h, + not defined
Protocol: Forty-eight rats were randomly divided into four groups, namely plasma (n = 6), prostate (n = 30, there were five time points, with six individuals for each time point), excretion (n = 6) and blank (n = 6). The plasma, prostate, and excretion groups were gavaged with 1 g/kg of Glycyrrhiza uralensis sample, whereas the blank group was administered 0.5% CMC-Na. Biological samples were collected after the mice were dosed once.
The tube was placed at room temperature for 1 h; then, it was centrifuged at 4 °C (10,000 rpm, 10 min). Upper plasma of different time points was separated for 50 μL and mixed and shaken well. Mixed plasma was collected at 50 μL and the plasma samples (50 μL) were vortex-mixed with 250 μL of methanol. The solution was centrifuged at 10,000 rpm for 10 min to separate the protein from the organic phase, and then the upper supernatant was collected. Then, the supernatant was transferred and evaporated to dryness under a gentle stream of nitrogen at room temperature. The residue was reconstituted in 50 µL methanol, mixed for 1 min, and centrifuged at 10,000 rpm for 10 min. At last, 20 μL of the resulting supernatant was applied to UPLC–MS/MS analysis.
UPLC-Q-Exactive Orbitrap-MS analysis was performed on a Dionex Ultimate 3000 ultra-high performance liquid system (ThermoFisher) consisting of a binary pump, a DAD detector, a column chamber, an automatic sampler and an online degasser. The sample was separated on a Waters ACQUITY UPLC HSS T3 C18 column (2.1 mm × 100 mm, 1.8 μm), with a column temperature of 30 °C, automatic sampler temperature of 10 °C, and flow rate of 0.2 mL·min^−1. The mobile phases A and B were acetonitrile with 0.1% formic acid and aqueous solution with 0.1% formic acid, respectively. […] The injection volume of the sample was 5 μL.
The MS conditions were as follows: detection mode: positive and negative ion modes; scan range: 100–1200; resolution: 70,000; sheath gas flow rate: 40; aux gas flow rate: 15; spray voltage [kV]: 3.20; capillary temp: 320 °C; aux gas heater temp: 350 °C; AGC target: 3,000,000; maximum IT (ms): 100; sheath gas: 40/45; aux gas flow: 11/10; sweep gas: 0; S-lens RF level: 55; and aux gas heater temperature: 220 °C.

[2] = Prostate distribution of four flavonoids after oral aerial part of G. uralensis (HPLC-MS/MS); assay type: in vivo, Sprague Dawley (SD) rats; settings: rats, 0.5-8 h after oral extract 1 g/kg on day 31, n = 6
Protocol: (§1) The analysis was performed on the AB SCIEX QTRAP 5500 (USA) triple quadrupole mass spectrometer, which was performed in SRM and positive and negative ionization modes. LC separation is run on XSelect HSS T3 analytical column (2.1 × 100 mm, 2.5 μm, Waters), equipped with Exion LC AD system (AB Sciex) infinite binary pump. Acetonitrile was used as solvent A and 0.1% formic acid aqueous solution was used as solvent B and the flow rate was 0.1 mL/min. Using gradient elution, the initial condition is that 90% solvent B drops to 0% B within 17 min and maintains it for 2 min, returns to the initial […] at 19.1 min, and ends an analysis at 22 min. The temperature of the column oven is maintained at 35 °C. The sample is kept at 10 °C and the injection volume is 5 μL. The MS parameters are as follows: ESI ion source temperature is 500 °C; curtain gas: 30 psi; collision-activated dissociation (CAD) gas settings: medium, ion spray voltage: −4500 V, ion gas 1 and 2: 50 psi. The data acquisition software is AB SCIEX Analyst 1.7.1. The specific parameters are as Table 8.

[3] = Pharmacokinetics of four flavonoids in rat plasma after oral aerial part of G. uralensis extract (HPLC-MS/MS); assay type: in vivo, Sprague Dawley (SD) rats; settings: for AUC(0-inf) / AUC(0-t) / Cmax / Tmax / half-life / MRT last / MRT inf: Sprague Dawley; for MRT last: day 31, n = 6, read-out: MRT0–t; for MRT inf: day 31, n = 6, read-out: MRT0–∞; for time at which steady state was reached: 3 h after daily oral extract 1 g/kg
Protocol: For clean-up, the plasma samples (50 μL) were vortex-mixed with 10 μL of IS and 250 μL of methanol. […] At last, 5 μL of the resulting supernatant was applied to HPLC–MS/MS analysis.
as §1

[4] = Stability test of analytes in rat prostate homogenate QC samples; assay type: in vitro ADME; settings: for Stability, Mean ± S.D., 24 h at room temperature, low QC / Stability, Mean ± S.D., freeze-thaw cycles, low QC: nominal puerarin 0.100, luteolin 0.200, kaempferol 2.000, pinocembrin 2.000, n = 3; for Stability, Mean ± S.D., 24 h at room temperature, medium QC / Stability, Mean ± S.D., freeze-thaw cycles, medium QC: nominal puerarin 1.000, luteolin 5.000, kaempferol 100.000, pinocembrin 50.000, n = 3; for Stability, Mean ± S.D., 24 h at room temperature, high QC / Stability, Mean ± S.D., freeze-thaw cycles, high QC: nominal puerarin 5.000, luteolin 10.000, kaempferol 200.000, pinocembrin 100.000, n = 3; for Stability, Mean ± S.D., freeze-thaw cycles, low QC / Stability, Mean ± S.D., freeze-thaw cycles, medium QC / Stability, Mean ± S.D., freeze-thaw cycles, high QC: three freeze-thaw cycles
Protocol: All of the solutions were stored at 4℃ until analysis. Stability investigation of the four components in the plasma and prostate homogenates was performed by analyzing replicates (n = 3) of the three levels of QC samples under three different conditions. Room temperature stability was assessed after the exposure of untreated QC samples at room temperature for 24 h. Freeze and thaw stability was evaluated after three freeze (−20 °C)–thaw (room temperature) cycles.

[5] = tested on: primary liver cell model; design: method as in Lu et al. [65]; settings: ref Lu et al. [65]; cited from earlier work
[6] = oral extract 1 g/kg every day, day 31, n = 6

| SMILES | Distribution of protoflavones: Plasma [1] | AUC(0-inf) [3, 6] [ng·h/mL] | AUC(0-t) [3, 6] [ng·h/mL] | Cmax [3, 6] [ng/mL] | Tmax [3, 6] [h] | half-life [3, 6] [h] | MRT last ([3]; oral extract 1 g/kg every day) [h] | MRT inf ([3]; oral extract 1 g/kg every day) [h] | Stability, Mean ± S.D., 24 h at room temperature, low QC [4] [μg·mL^−1/μg·g^−1] | Stability, Mean ± S.D., 24 h at room temperature, medium QC [4] [μg·mL^−1/μg·g^−1] | Stability, Mean ± S.D., 24 h at room temperature, high QC [4] [μg·mL^−1/μg·g^−1] | Stability, Mean ± S.D., freeze-thaw cycles, low QC [4] [μg·mL^−1/μg·g^−1] | Stability, Mean ± S.D., freeze-thaw cycles, medium QC [4] [μg·mL^−1/μg·g^−1] | Stability, Mean ± S.D., freeze-thaw cycles, high QC [4] [μg·mL^−1/μg·g^−1] | concentration in prostate (ranking, in words) [2] | further results |
| --- | --- | --- | --- | --- | --- | --- | --- | --- | --- | --- | --- | --- | --- | --- | --- | --- |
| O=c1c(O)c(-c2ccc(O)cc2)oc2cc(O)cc(O)c12 [Kaempferol] |  | 23.8 ± 0.86 | 18.8 ± 1.18 | 1.27 ± 0.06 | 4 ± 0.17 | 19 ± 1.46 | 20.1 ± 0.84 | 31.8 ± 1.22 | 2.000 ± 0.265 | 99.133 ± 3.557 | 201.667 ± 3.215 | 1.833 ± 0.058 | 96.667 ± 2.082 | 202.333 ± 2.082 | highest concentration; also recorded: kaempferol > pinocembrin > luteolin > puerarin; also recorded: particularly high |  |
| O=c1cc(-c2ccc(O)c(O)c2)oc2cc(O)cc(O)c12 [Luteolin] |  | 51.6 ± 1.98 |  |  | 0.87 ± 0.05 | 31.1 ± 1.17 | 20.7 ± 1.91 | 44 ± 1.72 | 0.194 ± 0.005 | 4.963 ± 0.118 | 9.900 ± 0.458 | 0.213 ± 0.031 | 4.833 ± 0.058 | 10.433 ± 0.551 | kaempferol > pinocembrin > luteolin > puerarin | time at which steady state was reached [3]: 9 days; AUC0–t [3, 6]: 35.01 ± 0.81 ng·h/mL; Phase II metabolites, share of the dosage [5]: 54% |
| O=C1C[C@@H](c2ccccc2)Oc2cc(O)cc(O)c21 [Pinocembrin] |  | 23.8 ± 1.29 | 21.8 ± 0.73 | 1.18 ± 0.06 | 1.5 ± 0.05 | 13.2 ± 0.72 | 19.1 ± 0.82 | 23.3 ± 0.83 | 1.923 ± 0.076 | 51.000 ± 3.000 | 102.000 ± 2.646 | 1.867 ± 0.153 | 51.333 ± 1.528 | 102.333 ± 2.887 | kaempferol > pinocembrin > luteolin > puerarin | time at which steady state was reached [3]: 5 days |
| O=c1c(-c2ccc(O)cc2)coc2c([C@@H]3O[C@H](CO)[C@@H](O)[C@H](O)[C@H]3O)c(O)ccc12 [Puerarin] | detected | 242 ± 2.45 | 238 ± 23.4 | 23.8 ± 1.05 | 0.5 ± 0.04 |  | 14.4 ± 1.21 | 15.1 ± 1.71 |  | 1.097 ± 0.138 | 4.940 ± 0.056 | 0.100 ± 0.005 |  | 5.057 ± 0.224 | kaempferol > pinocembrin > luteolin > puerarin | Distribution of four representative flavonoids and metabolites: Plasma ([1]; + not defined (detected)): detected; t1/2 [3, 6]: 6.43 ± 0.20 h |

Continued, in another order:

| Distribution of protoflavones: Plasma [1] | AUC(0-inf) [3, 6] [ng·h/mL] | AUC(0-t) [3, 6] [ng·h/mL] | Cmax [3, 6] [ng/mL] | Tmax [3, 6] [h] | half-life [3, 6] [h] | MRT last ([3]; oral extract 1 g/kg every day) [h] | MRT inf ([3]; oral extract 1 g/kg every day) [h] | Stability, Mean ± S.D., 24 h at room temperature, low QC [4] [μg·mL^−1/μg·g^−1] | Stability, Mean ± S.D., 24 h at room temperature, medium QC [4] [μg·mL^−1/μg·g^−1] | Stability, Mean ± S.D., 24 h at room temperature, high QC [4] [μg·mL^−1/μg·g^−1] | Stability, Mean ± S.D., freeze-thaw cycles, low QC [4] [μg·mL^−1/μg·g^−1] | Stability, Mean ± S.D., freeze-thaw cycles, medium QC [4] [μg·mL^−1/μg·g^−1] | Stability, Mean ± S.D., freeze-thaw cycles, high QC [4] [μg·mL^−1/μg·g^−1] | SMILES | concentration in prostate (ranking, in words) [2] | further results |
| --- | --- | --- | --- | --- | --- | --- | --- | --- | --- | --- | --- | --- | --- | --- | --- | --- |
| detected |  |  |  |  |  |  |  |  |  |  |  |  |  | O=c1c(O[C@@H]2O[C@H](CO)[C@@H](O)[C@H](O)[C@H]2O)c(-c2ccc(O)cc2)oc2cc(O)cc(O)c12 [Astragalin] |  |  |
| detected |  |  |  |  |  |  |  |  |  |  |  |  |  | O=c1c(O[C@@H]2O[C@H](CO)[C@H](O)[C@H](O)[C@H]2O)c(-c2ccc(O)c(O)c2)oc2cc(O)cc(O)c12 [Hyperoside] |  |  |
| detected |  |  |  |  |  |  |  |  |  |  |  |  |  | O=c1c(O[C@@H]2O[C@H](CO)[C@@H](O)[C@H](O)[C@H]2O)c(-c2ccc(O)c(O)c2)oc2cc(O)cc(O)c12 [Isoquercitrin] |  |  |
| detected |  |  |  |  |  |  |  |  |  |  |  |  |  | COc1ccc(-c2coc3cc(O[C@@H]4O[C@H](CO)[C@@H](O)[C@H](O)[C@H]4O)ccc3c2=O)cc1 [Ononin] |  |  |
| detected |  |  |  |  |  |  |  |  |  |  |  |  |  | C[C@@H]1O[C@@H](OC[C@H]2O[C@@H](Oc3c(-c4ccc(O)c(O)c4)oc4cc(O)cc(O)c4c3=O)[C@H](O)[C@@H](O)[C@@H]2O)[C@H](O)[C@H](O)[C@H]1O [Rutin] |  |  |
| detected |  |  |  |  |  |  |  |  |  |  |  |  |  | O=c1cc(-c2ccc(O)cc2)oc2c([C@@H]3O[C@H](CO)[C@@H](O)[C@H](O)[C@H]3O)c(O)cc(O)c12 [Vitexin] |  |  |
